Measurements from publication PMC5729604, “Dual inhibitors of hepatitis C virus and hepatocellular carcinoma: design, synthesis and docking studies” (Future Science OA, 2017).
“Also recorded” adds a separate entry of the source.

How the values were obtained:
[1] = system: HepG2 cells infected with hepatitis C virus; assay: In vitro anti-HCV screening, qualitative RT-PCR of viral RNA; format: cell-based, HCV genotype-4; settings: for Result (anti-HCV screening): at the used dose (below LD0 on HepG2 and PBMCs), 72 h, Positive = disappearance of viral RNA-amplified product (174 bp); for in vitro anti-HCV activity, in words: HCV-infected HepG2 cells, RT-PCR
Excerpt: The safe compounds on RBCs (5a-g, 5i-l, 5p-r, 5v-w, 6b-g) were screened for their in vitro anti-HCV activity using the HCC HepG2 cell line infected with the HCV. Monitoring of the HCV viremia pre- and post-antiviral therapy through the detection of viral RNA using qualitative reverse transcription-PCR (RT-PCR) was adopted in the present investigation. This technique was reported to be the most frequently used, reliable and sensitive technique. Inhibition of viral replication was detected by amplification of viral RNA segments by the RT-PCR technique both in the cultivated infected cells alone (as a positive control) and at the specified dose for each test compound at optimal temperature. The test compound was considered to be active when it can inhibit the viral replication inside the HCV-infected HepG2 cells, as evidenced by the disappearance of the viral RNA-amplified products detected by the RT-PCR (compared with positive control).
The used concentration of each compound was chosen to be lower than the LD0 on HepG2 cells. Therefore, 100% viability of HepG2 cells was maintained, to make sure that any inhibitory effect was due to anti-HCV activity rather than cytotoxic activity on HepG2 cells. Moreover, the used concentrations were also chosen to be lower than the LD0 on PBMCs. Consequently, these doses could be used for inhibition of HCV in normal cells infected with the virus.
HepG2 cells were washed twice in RPMI-1640 medium supplemented with 200 μM L-glutamine and […] HEPES buffer. The cells were suspended at 12 × 10^4 cells/ml in RPMI culture medium (RPMI supplemented medium and 10% FBS). The appropriate number of cells to be used was chosen to be 12 × 10^3 cells/well (100 μl of the prepared suspension), and the cells were left to adhere on the polystyrene […] plates in an incubator at 37°C, 5% CO2 and 95% humidity for 24 h. The cells were washed once using RPMI supplemented medium, then infected with 2% HCV-infected serum (the used serum was a pole of ten patients infected with HCV genotype-4 with viral loads: 3.2–9 million IU/ml, G4 HCV RNA) in RPMI culture medium containing 8% FBS. The used dose of each compound was chosen so as to maintain 100% viability of the HepG2 cell line (the dose was lower than the LD0 of each compound on HepG2 cells as calculated from the in vitro anticancer screening). It was reported that, cultured HepG2 cells lost their biotransformation activity due to decrease in cytochrome (CYP) transcription. This waived its effect on the compounds stability during the test. Negative control is HepG2 cells with culture medium without addition of HCV infected serum or addition of tested compounds. Positive control is HepG2 cells with culture medium and infected HCV serum but without addition of tested compounds. After addition of the compounds, the plates were incubated at 37°C, 5% CO2 and 95% humidity for 72 h, followed by RNA extraction. The RNA strand was detected by RT-PCR using HCV-specific primers to the […] region of the virus.
RNA was extracted from HepG2 cells using the method described by El-Awady et al.. Culture cells were mixed with 200 μl of 4 mol/l guanidinium isothiocyanate (Fischer Bioreagents) containing 25 mmol/l sodium citrate (MP Biomedicals, CA, USA), 0.5% sarkosyl (Fischer Bioreagents), 0.1 mol/l β-mercaptoethanol (MP Biomedicals), and 100 μl sodium acetate (Merck). The lysed cells were mixed with an equal volume of phenol, chloroform and isoamyl alcohol (25:24:1, pH 4; Fischer Bioreagents). After vortexing, the mixture was centrifuged (14,000 r.p.m. for 10 min) at 4°C. The aqueous layer was collected and mixed with an equal volume of isopropanol (Acros Organics, Geel, Belgium). After incubation at -20°C overnight, RNA was precipitated by centrifugation (14,000 r.p.m. for 30 min) at 4°C, and the precipitated RNA was washed twice with 70% ethanol. […]

In vitro hemolytic assay = format: cell-based; settings: 2% erythrocyte suspension (washed red blood cells); 2% erythrocyte suspension, 3 μl of 1 mg/ml compound in DMF per 240 μl well, 37°C 30 min, absorbance 405 nm; <5% considered nontoxic
Description: Compounds 5a-x and 6a-h were subjected to the in vitro hemolytic assay to identify those which cause hemolysis to red blood cells (RBCs). Consequently, these compounds would be toxic in vivo so they were excluded from further biological screening.
Blood samples (5 ml) were freshly collected into heparinized tubes and were centrifuged (1000 r.p.m. for 20 min) at room temperature. The plasma and buffy coat were removed by Pasteur pipette, and the collected erythrocytes were washed three-times using isotonic buffer solution (0.9% sodium chloride [Sigma-Aldrich, MO, USA]) by centrifugation (2500 r.p.m. for 10 min). A two percent erythrocyte suspension was prepared to be used in the assay.
A 1 mg/ml stock solution of each compound was prepared in DMF (Sigma-Aldrich). Compound wells were prepared by adding 3 μl of the compound solution to 117 μl isotonic buffer solution and 120 μl erythrocyte suspension. Compounds color blank wells were prepared by adding 3 μl compound to 237 μl isotonic buffer solution. Solvent (DMF) wells were prepared by adding 3 μl DMF to 117 μl isotonic buffer solution and 120 μl erythrocyte suspension. Positive control wells (representing 100% hemolysis) were prepared by adding 120 μl erythrocyte suspension to 120 μl distilled water, while negative control wells (representing 0% hemolysis) were prepared by adding 120 μl erythrocyte suspension to 120 μl isotonic buffer solution. Finally, blank wells contained only 240 μl isotonic buffer solution. Each set of samples was pipetted in triplicate. The microtiter plate was then shaken well on bench, incubated at 37°C for 30 min then centrifuged (2000 rpm for 5 min) at room temperature.
A fraction of the supernatant layer (150 μl) of each well was transferred to another 96-well microtiter plate. Erythrocyte hemolysis was determined by reading the absorbance (A) of liberated hemoglobin at 405 nm in the supernatant fraction compared with the 100% hemolysis of erythrocyte. The average value was calculated from triplicate assay: [drawing 2]

SMILES | Result (anti-HCV screening) [1] | hemolysis at 30 min, 12.5 µg/ml (In vitro hemolytic assay) | in vitro anti-HCV activity, in words [1]
CC(=NN=C1SC(=Cc2cn(-c3ccccc3)nc2-c2ccc(Cl)cc2)C(=O)N1c1ccc(Cl)cc1)c1nc2ccccc2[nH]1 [Compound 5q, 2-[1-(1H-Benzimidazole-2-yl)ethylidenehydrazono]-5-{[3-(4-chlorophenyl)-1-phenyl-1H-pyrazol-4-yl]methylene}-3-(4-chlorophenyl)thiazolidin-4-one] | Negative | 3.49% | –
CC(=NN=C1SC(=C2C(=O)Nc3ccccc32)C(=O)N1c1ccc(Cl)cc1)c1nc2ccccc2[nH]1 [Compound 6f, 2-[1-(1H-Benzimidazole-2-yl)ethylidenehydrazono]-5-(2-oxoindolin-3-ylidene)-3-(4-chlorophenyl)thiazolidin-4-one] | Negative | 1.01% | –
COc1ccc(-c2nn(-c3ccccc3)cc2C=C2SC(=NN=C(C)c3cc4ccccc4o3)N(c3ccc(Cl)cc3)C2=O)cc1 [Compound 5f, 2-[1-(Benzofuran-2-yl)ethylidenehydrazono]-5-{[3-(4-methoxyphenyl)-1-phenyl-1H-pyrazol-4-yl]methylene}-3-(4-chlorophenyl)thiazolidin-4-one] | Negative | 4.59% | –
CC(=NN=C1SC(=Cc2cn(-c3ccccc3)nc2-c2ccccc2)C(=O)N1C1CCCCC1)c1nc2ccccc2[nH]1 [Compound 5v, 2-[1-(1H-Benzimidazole-2-yl)ethylidenehydrazono]-5-[(1,3-Diphenyl-1H-pyrazol-4-yl)methylene]-3-cyclohexylthiazolidin-4-one] | Positive | 3.66% | showed in vitro anti-HCV activity; also recorded: exhibited in vitro anti-HCV activity
COc1ccc(N2C(=O)C(=C3C(=O)Nc4ccccc43)SC2=NN=C(C)c2cc3ccccc3o2)cc1 [Compound 6c, 2-[1-(Benzofuran-2-yl)ethylidenehydrazono]-5-(2-oxoindolin-3-ylidene)-3-(4-methoxyphenyl)thiazolidin-4-one] | Negative | 4.02% | –
CC(=NN=C1SC(=Cc2cn(-c3ccccc3)nc2-c2ccc(Cl)cc2)C(=O)N1c1ccccc1)c1cc2ccccc2o1 [Compound 5b, 2-[1-(Benzofuran-2-yl)ethylidenehydrazono]-5-{[3-(4-chlorophenyl)-1-phenyl-1H-pyrazol-4-yl]methylene}-3-phenylthiazolidin-4-one] | Negative | 4.22% | –
CC(=NN=C1SC(=Cc2cn(-c3ccccc3)nc2-c2ccccc2)C(=O)N1c1ccc(Cl)cc1)c1cc2ccccc2o1 [Compound 5d, 2-[1-(Benzofuran-2-yl)ethylidenehydrazono]-5-[(1,3-Diphenyl-1H-pyrazol-4-yl)methylene]-3-(4-chlorophenyl)thiazolidin-4-one] | Negative | 1.05% | –
CC(=NN=C1SC(=C2C(=O)Nc3ccccc32)C(=O)N1c1ccc(Cl)cc1)c1cc2ccccc2o1 [Compound 6b, 2-[1-(Benzofuran-2-yl)ethylidenehydrazono]-5-(2-oxoindolin-3-ylidene)-3-(4-chlorophenyl)thiazolidin-4-one] | Negative | 3.08% | –
CC(=NN=C1SC(=Cc2cn(-c3ccccc3)nc2-c2ccc(Cl)cc2)C(=O)N1C1CCCCC1)c1nc2ccccc2[nH]1 [Compound 5w, 2-[1-(1H-Benzimidazole-2-yl)ethylidenehydrazono]-5-{[3-(4-chlorophenyl)-1-phenyl-1H-pyrazol-4-yl]methylene}-3-cyclohexylthiazolidin-4-one] | Negative | 3.53% | –
CC(=NN=C1SC(=Cc2cn(-c3ccccc3)nc2-c2ccccc2)C(=O)N1c1ccc(Cl)cc1)c1nc2ccccc2[nH]1 [Compound 5p, 2-[1-(1H-Benzimidazole-2-yl)ethylidenehydrazono]-5-[(1,3-Diphenyl-1H-pyrazol-4-yl)methylene]-3-(4-chlorophenyl)thiazolidin-4-one] | Positive | 4.62% | showed in vitro anti-HCV activity; also recorded: exhibited in vitro anti-HCV activity
COc1ccc(N2C(=O)C(=C3C(=O)Nc4ccccc43)SC2=NN=C(C)c2nc3ccccc3[nH]2)cc1 [Compound 6g, 2-[1-(1H-Benzimidazole-2-yl)ethylidenehydrazono]-5-(2-oxoindolin-3-ylidene)-3-(4-methoxyphenyl)thiazolidin-4-one] | Negative | 2.65% | –
COc1ccc(-c2nn(-c3ccccc3)cc2C=C2SC(=NN=C(C)c3cc4ccccc4o3)N(c3ccccc3)C2=O)cc1 [Compound 5c, 2-[1-(Benzofuran-2-yl)ethylidenehydrazono]-5-{[3-(4-methoxyphenyl)-1-phenyl-1H-pyrazol-4-yl]methylene}-3-phenylthiazolidin-4-one] | Negative | 1.65% | –
CC(=NN=C1SC(=Cc2cn(-c3ccccc3)nc2-c2ccc(Cl)cc2)C(=O)N1c1ccc(Cl)cc1)c1cc2ccccc2o1 [Compound 5e, 2-[1-(Benzofuran-2-yl)ethylidenehydrazono]-5-{[3-(4-chlorophenyl)-1-phenyl-1H-pyrazol-4-yl]methylene}-3-(4-chlorophenyl)thiazolidin-4-one] | Negative | 3.82% | –
CC(=NN=C1SC(=Cc2cn(-c3ccccc3)nc2-c2ccc(Cl)cc2)C(=O)N1C1CCCCC1)c1cc2ccccc2o1 [Compound 5k, 2-[1-(Benzofuran-2-yl)ethylidenehydrazono]-5-{[3-(4-chlorophenyl)-1-phenyl-1H-pyrazol-4-yl]methylene}-3-cyclohexylthiazolidin-4-one] | Negative | 4.44% | –
